Assay results: patent publication US20220401352A1, “A COSMETIC COMPOSITION” (Conopco, Inc., d/b/a UNILEVER, priority 2019, published 2022)
Counter-ions that a name gives are not always drawn.

Experiments:
[1] = system: THP1-XBlue cells; test: Cell viability in the THP-1 in vitro assay; type: cell-based, human; conditions: PMA-differentiated THP1-XBlue cells co-treated with LPS and composition, 24 hours; percentage to non-treated cells (=100%)
Method: (§1) The following procedure was used to determine the anti-inflammation efficacy: THP1-XBlue™ (Cat No: thpx-sp, InvivoGen) cells were cultured as suspense in RPMI 1640 medium supplemented with 10% FBS, penicillin (10 U/mL)-streptomycin (10 μg/ML). Cells were differentiated in 24-well plates at the density of 5×10^5 cells/well with 100 nM PMA for 72 hours. Cells were then co-treated with pure E. coli ipopolysaccharides (LPS) and various compositions. After 24 hours, the supernatants were collected and measured for interleukin (IL)-6 as a pro-inflammatory biomarker using enzyme-linked immunosorbent assay (ELISA). IL-6 is a cytokine, or cell-signaling protein, encoded in humans by the IL-6 gene which is both pro-inflammatory and anti-inflammatory and which stimulates the immune response to inflammation. Expression of IL-6 was calculated as the percentage to LPS-treated cells which was designated as 100%. It can be considered as no anti-inflammatory effect if the calculated result is over 100%. Cell viability was calculated as the percentage to non-treated cells which was designated as 100%. P value was analyzed by Student's t-test comparing combination groups and individual compound groups (expression of IL-6). P value <0.05 indicates synergistic effect.

[2] = system: interleukin (IL)-6; test: Human immune cell line THP-1 in vitro assay: IL-6 in supernatant by ELISA after co-treatment with LPS; type: cell-based; conditions: PMA-differentiated THP1-XBlue cells co-treated with E. coli LPS and composition, 24 hours; percentage to LPS-treated cells (=100%)
Method: as §1, with “Human Immune Cell Line THP-1 Invitro Assay The” for “The”, “IL-6).” for “IL-6). P value <0.05 indicates synergistic effect.”

| SMILES | Cell Viability (%) [1] [%] | expression of IL-6 (%) [2] [%] |
| --- | --- | --- |
| Cc1cc(CC(C)CC(C)(C)C)n(O)c(=O)c1 (stereo not shown) [B, 1-hydroxy-4-methyl-6-(2,4,4-trimethylpentyl)-2(1H) pyridinone monoethanolamine salt] | 81 | 76.4 |
| OCc1ccccc1O[C@@H]1O[C@H](CO)[C@@H](O)[C@H](O)[C@H]1O [C, salicin] | 86 | 65.0 |
